This note sets out measurements from ChEMBL document CHEMBL1201862, “PubChem BioAssay data set” (2004).

What all share (assay): NCI tumour cell line growth inhibition, 48 h
For assay [1], the system named is MDA-MB-231.
Assay [2] concerns SK-MEL-5.
Assay [3] has as its system SK-OV-3.
Assay [4] deals with SF-539.
The test system of assay [5] is DU-145.
Assay [6] relates to SN12C.
Assay [7] relates to HCC 2998.
For assay [8], the system named is UACC-257.
Assay [9] has as its system LOX IMVI.
Assay [10] concerns HOP-92.
In assay [11] the test system is HT-29.
Assay [12] concerns Malme-3M.
In assay [13] the test system is OVCAR-5.
For assay [14], the system named is EKVX.
The test system of assay [15] is HCT-15.
Assay [16] deals with ACHN.
For assay [17], the system named is Hs-578T.
Assay [18] concerns A549.
For assay [19], the system named is U-251.
Assay [20] relates to PC-3.

The structures appear in SMILES notation.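 Exposure lasted 48 hours, with cells grown in 96-well plates and compounds tested at five concentrations. GI50 is the concentration that inhibits growth by half.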 Calls of active or inactive are those of the source. Cut-off read from the data, not from the text of the source: active = GI50 up to about 1.1 µM and inactive = higher. Some results are limits rather than exact numbers.

Take `CC(C)c1ccc2c(c1)[C@@]1(C)CC[C@H](C)C(C)(C)C1CC2` (stereo partly specified): the GI50 in [1] was 19.5 µM (inactive); in assay [2], 20.3 µM (inactive); in assay [3], 18.5 µM (inactive); in assay [4], 23.4 µM (inactive); in assay [5], 25.7 µM (inactive); in assay [6] it was 17.7 µM (inactive). Besides, the GI50 was 20.9 µM (inactive) in [7]; 19.5 µM (inactive) in assay [8]; 17.6 µM (inactive) in [9]; 16.9 µM (inactive) in assay [10]; 16.3 µM (inactive) in assay [11]; 18.5 µM (inactive) in [12]. In addition, the GI50 in assay [13] is 24.4 µM (inactive); in assay [14], 18.9 µM (inactive); in [15], 18.1 µM; in assay [16] it was 18.6 µM (inactive); in [17] it was 24 µM (inactive); in [18] it was 17.4 µM (inactive).

For `C/C(=N\Nc1nc2ccccc2n1C)c1cc2ccccc2cn1`, the GI50 in [1] is < 0.01 µM (active); in assay [2], 0.0286 µM (active); in assay [3], 0.0339 µM (active); in [4] it was 0.441 µM (active); in assay [5], 1.58 µM (inactive); in assay [6] it was < 0.01 µM (active). For the same compound, the GI50 in [7] is 11.6 µM (inactive); in [19], < 0.0275 µM (active); in assay [8] it was < 0.0105 µM (active); in assay [9], 0.0305 µM (active); in assay [10], 0.321 µM (active); in assay [11] it was < 0.0118 µM (active). The GI50 in assay [12] is < 0.01 µM (active); in [14] it was < 0.0111 µM (active); in assay [15], less than 0.01 µM; in assay [16], < 0.01 µM (active); in assay [17], 0.0933 µM (active); in assay [18] it was 0.0327 µM (active).

For the compound `CON(C)C(=O)C(C)N(Cc1ccccc1)Cc1ccccc1` (stereo unspecified), the GI50 in assay [2] was 41.3 µM (inactive); in [3], 66.8 µM (inactive); in assay [4], > 100 µM (inactive); in assay [5], > 100 µM (inactive); in assay [6], > 10 µM (inactive); in [7], > 100 µM (inactive). Moreover, the GI50 in assay [20] is 19.1 µM (inactive); in [19] it was > 100 µM (inactive); in assay [8], 82 µM (inactive); in assay [10], > 100 µM (inactive); in [11] it was 79.1 µM (inactive); in assay [12], > 100 µM (inactive). The GI50 was > 100 µM (inactive) in assay [13]; 65.8 µM (inactive) in assay [14]; 34.8 µM in assay [15]; 74.8 µM (inactive) in assay [16]; 50 µM (inactive) in assay [17]; 57 µM (inactive) in assay [18].

For the compound `C[N+]1([O-])[C@H]2CC(OC(=O)[C@H](CO)c3ccccc3)C[C@H]1[C@H]1O[C@H]12` (stereo partly specified), the GI50 in assay [1], in [2], in assay [3], in assay [4], in assay [5] and in assay [6] was > 100 µM (inactive) in each case. Also, the GI50 in assay [20], in [19], in [8], in assay [9], in assay [11] and in assay [12] was > 100 µM (inactive) throughout. For the same compound, the GI50 in assay [13] is > 100 µM (inactive); in assay [14], > 100 µM (inactive); in assay [15] it was more than 100 µM; in assay [16] it was > 100 µM (inactive); in assay [17], > 100 µM (inactive); in assay [18] it was > 100 µM (inactive).

In the case of `NC1CC(=O)c2c(Br)csc21` (stereo unspecified), the GI50 in assay [1] is > 100 µM (inactive); in assay [2] it was 61.9 µM (inactive); in assay [3], > 100 µM (inactive); in assay [4], 35.6 µM (inactive); in [5], > 100 µM (inactive); in assay [6], 27 µM (inactive). The GI50 in assay [7] was 19.2 µM (inactive); in assay [20] it was 39.3 µM (inactive); in [19] it was 10 µM (inactive); in [8], 40.2 µM (inactive); in assay [11] it was 40.6 µM (inactive); in [12], 46.8 µM (inactive). For the same compound, the GI50 in [13] is 63.7 µM (inactive); in assay [14], 67.6 µM (inactive); in [15], 35.4 µM; in assay [16], 52 µM (inactive); in assay [18], > 100 µM (inactive).

Take `COc1cc2c(c(N)c1OC)C(=O)/C(=C/c1cc(C)c(O)c(C)c1)C2`: the GI50 in [1] was 0.0141 µM (active); in assay [2] it was < 0.01 µM (active); in assay [3] it was < 0.01 µM (active); in assay [4], < 0.01 µM (active); in assay [5], < 0.01 µM (active); in assay [6], < 0.01 µM (active). Besides, the GI50 is 1.95 µM (inactive) in assay [7]; < 0.01 µM (active) in assay [20]; < 0.0164 µM (active) in [19]; > 100 µM (inactive) in assay [8]; < 0.01 µM (active) in assay [9]; > 100 µM (inactive) in assay [10]. Moreover, the GI50 in assay [11] is 2.64 µM (inactive); in [13], 0.693 µM (active); in assay [14] it was < 0.01 µM (active); in assay [15] it was less than 0.01 µM; in [18], < 0.01 µM (active).

Regarding `O=c1[nH]nc(NCCc2ccccc2)c2nnn(Cc3ccccc3)c12`, the GI50 in assay [1], in [2], in [5], in assay [6], in assay [7] and in assay [20] was > 100 µM (inactive) each time. Moreover, the GI50 in [19], in [8], in assay [9], in [11], in [12] and in [13] was > 100 µM (inactive) throughout. The GI50 in [14] was > 100 µM (inactive); in assay [15], more than 100 µM; in assay [16], > 100 µM (inactive); in [18] it was > 100 µM (inactive).

For the compound `COc1ccc(/C=C(\NC(=O)c2ccccc2)c2nc3ccccc3[nH]2)cc1OC`, the GI50 in [2], in assay [3], in assay [4], in [6], in [7] and in assay [19] was > 100 µM (inactive) each time. For the same compound, the GI50 in assay [8], in assay [9], in [10], in assay [11], in assay [12] and in assay [13] was > 100 µM (inactive) each time. Besides, the GI50 in assay [14] is > 100 µM (inactive); in assay [15] it was more than 100 µM; in assay [16], > 100 µM (inactive); in assay [18], > 100 µM (inactive).

Consider `NC(=O)/N=C(\N)NC(=O)c1ccccc1`, for which the GI50 in assay [1], in assay [2], in assay [5], in assay [6], in assay [7] and in assay [20] was > 100 µM (inactive) in each case. The GI50 in assay [19], in assay [8], in [9], in assay [10], in assay [11] and in assay [12] was > 100 µM (inactive) in each case. Also, the GI50 in assay [13] is > 100 µM (inactive); in assay [14] it was > 100 µM (inactive); in assay [15] it was more than 100 µM; in [16], > 100 µM (inactive); in [18], > 100 µM (inactive).

Regarding `COc1ccc(Nc2nc3ccc(C(F)(F)F)cc3nc2-c2ccccc2)cc1OC`, the GI50 is 35.8 µM (inactive) in assay [2]; > 100 µM (inactive) in assay [3]; 42.6 µM (inactive) in assay [4]; 38 µM (inactive) in assay [6]; 14.6 µM (inactive) in [7]; 34.1 µM (inactive) in [19]. The GI50 in [8] was 38.5 µM (inactive); in [9], 16.1 µM (inactive); in assay [10], 1.08 µM (active); in assay [11], 6.65 µM (inactive); in assay [12], 51.9 µM (inactive); in assay [13], 52.7 µM (inactive). The GI50 in [14] is 20.7 µM (inactive); in [15], 15.9 µM; in [16], 28.6 µM (inactive); in [18] it was 39.5 µM (inactive).

For `CCCCP(CCCC)(CCCC)=C(C(=O)OC)C(C(=O)OC)=C1SC(C(=O)OC)=C(C(=O)OC)S1`, the GI50 in [1] was 17.9 µM (inactive); in assay [2], 16.2 µM (inactive); in assay [3], 25.8 µM (inactive); in assay [5], 40.8 µM (inactive); in [6], 15.5 µM (inactive); in [20], 11.1 µM (inactive). The GI50 in assay [19] was 16 µM (inactive); in assay [8] it was 17.6 µM (inactive); in assay [9], 13.2 µM (inactive); in assay [11], 14.5 µM (inactive); in assay [12] it was 18.2 µM (inactive); in assay [13], 23 µM (inactive). Besides, the GI50 in assay [14] was 27.2 µM (inactive); in [15], 30.5 µM; in assay [16] it was 22.9 µM (inactive); in assay [17], 18.5 µM (inactive); in assay [18], 17.6 µM (inactive).

As for `CC12CC(=O)C3C(C(=O)C1)C32C` (stereo unspecified), the GI50 in assay [1], in [2], in assay [3], in assay [4], in assay [5] and in assay [6] was > 100 µM (inactive) in each case. For the same compound, the GI50 in assay [7], in assay [20], in assay [19], in [8], in assay [9] and in assay [11] was > 100 µM (inactive) in each case. Besides, the GI50 in assay [12] is 20.5 µM (inactive); in [13], > 100 µM (inactive); in assay [14], > 100 µM (inactive); in assay [15], more than 100 µM; in assay [16] it was > 100 µM (inactive); in assay [18], > 100 µM (inactive).
